Measured values as given in patent publication US5750547A, “Certain carbanate anti-cancer agents” (priority 1996, dated 1998).
Read-outs that look alike come from different tables or passages of the source.

Key:
[1] = tested on: MDA-MB-231 cells; test: In vitro cytotoxicity (MTT), MDA-MB-231 cells; type: cell-based, human
Text: (§1) As suitable cell lines there may be mentioned: human adenocarcinoma cells (CRL-229, LoVo), human ovarian carcinoma cells (CRL-1572), human breast cancer cells (MDA-MB-231), normal mouse breast cells (HC-11), mouse leukaemia cells (CCL-46, P388D1), mouse leukaemia (CCL-219, L1210), CRL-1427, human promonocyte U937 and the like. Most of these cell lines are readily available from the American Type Culture Collection. Cells lines: 0-23, 0-23 clone 2.2, LR-73, LR-73 MDR-3, T47D and T47D (GST), having developed resistance to antineoplastic agents through different mechanisms of resistance were also tested in the same manner.
(§2) All cell lines are cultured by a standard procedure in RPMI-1640®mediumsupplemented with 10% fetal bovine serum and 100 ,pg/mL of penicillin and 100 μg/mL of streptomycin.
(§3) In order to evaluate the efficiency of the compounds of formula I, the following experiments are carried out. Cytotoxicity assays are conducted on LoVo, MDA-MB-231 and P388D1 cells. The choice of these cells has been motivated by the fact that they have been specifically identified as the cause of a large number of cancer in North America in the recent years.
(§4) Tumor cells are obtained from the American Type Culture Collection. The cells are suspended at a concentration of 2.5×10^4 cells/mL in a fresh culture media (RPMI-1640, supplemented with 10% fetal calf serum). The well plates (microtitration, 96 wells) are seeded with 100 μL of the cell suspension and incubated 24 hours at 37° C. in a humid atmosphere containing 5% CO2.100 μL of fresh culture media containing different concentrations of drugs to be tested (1 to 25 μM) are added in 8 wells of each plate, and the cells are further incubated for 3 additional days at 37° C. under the same conditions. Each experiment is conducted in triplicate. Cell survival is determined by MTT method, as taught in J. Immunol Methods, 1986, 89, 271 (Denizot et al.) and Int. J. Immunopharm, 1988. 10, 785 (Page et al). The method mainly consisted of a first removal of the culture media and addition to the plates of 20 μL of a MTT solution (5 mg/mL in PBS pH 7.4). The plates are incubated at 37° C. for 4 hours and then 200 μL of dimethylsuffoxide (DMSO) area added into the wells. The plates are agitated for 15 min at room temperature and the absorbance at 540 nm measured on Titertek MC Multiwell® spectrophotometer.
(§5) The method normally used by the American National Cancer Institute for the comparison of effectiveness between drugs is based upon ID50. The ID50 is the concentration at which half of tumor cell population is killed. A comparison of the antitumor agents of the present invention with chlorambucil, which is presently used commercially, is provided to illustrate the superiority of the former.

[2] = tested on: primary brain tumors; settings: low doses; cited from earlier work
[3] = cited from earlier work; for biological half-life: approximately
[4] = administered orally or intravenously; cited from earlier work
[5] = tested on: LoVo cells; test: In vitro cytotoxicity (MTT), LoVo cells; type: cell-based; settings: Homo sapiens, 72 h
Text: as §1, §2, §3, §4, §5

[6] = tested on: P388D1 cells; test: In vitro cytotoxicity (MTT), P388D1 cells; type: cell-based; settings: Mus musculus, P388D1, 72 h
Text: as §1, §2, §3, §4, §5

[7] = Acute toxicity assay, i.p. in mice (survival); type: in vivo, BDF1 (C57BL/6×DBA/2) mice
Procedure: Chlorambucil and compound 36 of the present invention were dissolved in DMSO. Each drug solution was mixed with hydrogenated soybean oil in a ratio 1:9 v/v. 100 μL of this mixture was administered i.p. to BDF1 (C57BL/6×DBA/2) mice. For each concentration of drug, varying from 9.25 to 75 mg/kg for chlorambucil or from 9.25 to 296 mg/kg for compound 36, 6 mice were treated. Survival weight and fitness were measured as criteria of toxicity.

[8] = tested on: L1210 leukaemia cells; test: Antineoplastic assay, L1210 leukaemia in BDF1 mice; type: in vivo; settings: 10 mg/kg, i.p. daily day 1 to day 9, L1210 in BDF1 mice
Procedure: L1210 leukaemia cells suspended in RPM1-1640 were washed, centrifuged and re-suspended in phosphate buffer saline (PBS) at a concentration of 5×10^5 cells/mL. 200 μL of the suspension were injected i.p. to BDF1 mice. From day 1 to day 9, mice were treated daily according to the NCI procedure taught in Protocols for screening chemical agents and natural products against animal tumors and other biological systems (3rd edition). Cancer Chem. Rep. Part 3 3 (2): 1-103) with i.p. injections of 10 μL of drug solution in DMSO mixed with 90 μL of hydrogenated soybean oil. Chlorambucil was tested at 1, 5 and 10 mg/kg/day and compounds 36 and 4 at 1, 10 and 50 mg/kg/day. For each concentration, six mice were treated. Control groups were treated i.p. with 100 μL of hydrogenated soybean oil containing 10% (v/v) DMSO.
The antineoplastic activity of a drug on mice bearing cancer tumors is evaluated by a value known in the art as the median survival time (T/C %). This value of T/C % is obtained by dividing the median survival time of treated mice by that of untreated mice, and the quotient is multiplied by 100. When the value of T/C % is lower than 85, the drug is considered toxic. On the other hand, a survival time greater than 125 indicates a significant antineoplastic action of the drug on cancer tumors.

[9] = Table 2, 3 days incubation, MTT, read-out: ID50 (LoVo)
[10] = Homo sapiens, MDA-MB-231, 72 h, Table 2, 3 days incubation, MTT, read-out: ID50 (MDA-MB-231)
[11] = Table 2, 3 days incubation, MTT, read-out: ID50 (P388 D1)
[12] = Homo sapiens, MDA-MB-231, 72 h, Table 1, 3 days incubation, MTT, read-out: ID50 on tumor cells, MDA-MB-231
[13] = Table 1, 3 days incubation, MTT, read-out: ID50 on tumor cells, LoVo
[14] = Table 1, 3 days incubation, MTT, read-out: ID50 on tumor cells, P388D1

Molecule | IC50 [5, 9] [µM] | IC50 [1, 10] [µM] | IC50 [6, 11] [µM] | further results
5-[3-(2-chloroethyl)ureido] 4,6-dimethyl pyridine [VIII] |  |  |  | IC50 ([1]; Table 1, 3 days incubation, MTT, read-out: ID50 on tumor cells, MDA-MB-231): 50 µM
O=NN(CCCl)C(=O)NCCCl [Carmustine] |  |  |  | activity in primary brain tumors [2]: active in primary brain tumors; biological half-life [3]: 1-1.5 h; percentage bound to plasma proteins [3]: over 90%; side effects [4]: nausea, vomiting, alopecia, lymphopenia, leucopenia and bone marrow depression
O=C(O)CCCc1ccc(N(CCCl)CCCl)cc1 [Chlorambucil, reference compound] |  |  |  | IC50 ([5]; read-out: ID50 (LoVo)): 9 µM; IC50 ([1]; Homo sapiens, MDA-MB-231, 72 h, read-out: ID50 (MDA-MB-231)): 11 µM; IC50 ([6]; read-out: ID50 (P388 D1)): 6.7 µM; Acute toxicity, survival ([7]; 9.25 mg/kg i.p.): 6/6; Acute toxicity, survival ([7]; 18.5 mg/kg i.p.): 6/6; Acute toxicity, survival ([7]; 37 mg/kg i.p.): 6/6; Acute toxicity, survival ([7]; 75 mg/kg i.p.): 0/6; median survival time (T/C %) [8]: 160%; biological half-life [3]: 1-1.5 h; percentage bound to plasma proteins [3]: over 90%; side effects [4]: nausea, vomiting, alopecia, lymphopenia, leucopenia and bone marrow depression
CCc1cccc(NC(=O)NCCCl)c1 [Compound 2] | 3.5 | 7.8 | 7 | 
CCCc1ccc(NC(=O)NCCCl)cc1 [Compound 3] | 9.8 | 12 | 11 | 
CC(C)c1ccc(NC(=O)NCCCl)cc1 [Compound 4] | 1.3 | 2 | 2.2 | median survival time (T/C %) [8]: 164%
CCC(C)c1ccc(NC(=O)NCCCl)cc1 (stereo not shown) [Compound 5] | 1.6 | 2.2 | 2.4 | 
CCCCCc1ccc(NC(=O)NCCCl)cc1 [Compound 6] | 5.5 | 6 | 7 | 
CCCCCCc1ccc(NC(=O)NCCCl)cc1 [Compound 7] | 6.2 | 7.3 | 7.9 | 
O=C(NCCCl)Nc1ccc(C2CCCCC2)cc1 [Compound 8] | 22 | 29 | 22 | 
CCCCCCCc1ccc(NC(=O)NCCCl)cc1 [Compound 9] | 15 | 16 | 18 | 
CCCCCCCCc1ccc(NC(=O)NCCCl)cc1 [Compound 10] | 29 | 33 | 32 | 
CCOc1cccc(NC(=O)NCCCl)c1 [Compound 14] | 35 | 33 | 42 | 
CCCCCOc1ccc(NC(=O)NCCCl)cc1 [Compound 15] | 16 | 22 | 28 | 
CCCCCCOc1ccc(NC(=O)NCCCl)cc1 [Compound 16] | 16 | 22 | 17 | 
O=C(NCCCl)Nc1ccc(CCO)cc1 [Compound 36] |  |  |  | Acute toxicity, survival ([7]; 9.25 mg/kg i.p.): 6/6; Acute toxicity, survival ([7]; 18.5 mg/kg i.p.): 6/6; Acute toxicity, survival ([7]; 37 mg/kg i.p.): 6/6; Acute toxicity, survival ([7]; 75 mg/kg i.p.): 6/6; Acute toxicity, survival ([7]; 111 mg/kg i.p.): 6/6; Acute toxicity, survival ([7]; 148 mg/kg i.p.): 6/6; Acute toxicity, survival ([7]; 222 mg/kg i.p.): 6/6; Acute toxicity, survival ([7]; 296 mg/kg i.p.): 6/6; median survival time (T/C %) [8]: 140%
CCSc1ccc(NC(=O)NCCCl)cc1 [Compound 39] |  | 17 |  | 
O=C(NCCCl)Oc1ccc([N+](=O)[O-])cc1 [Compound 40, 4-nitro phenyl N-(2chloroethyl) carbamate] | 7 | 10 | 8.2 | 
Cc1cc(OC(=O)NCCCl)ccc1[N+](=O)[O-] [Compound 47] | 7.2 | 7.5 | 8 | 
Cc1ccc(OC(=O)NCCCl)cc1C [Compound 50] | 30 | 40 | 40 | 
O=C(NCCCl)Oc1cccc(Cl)c1 [Compound 63] | 7.5 | 8.5 | 5 | 
O=C(NCCCl)Nc1ccc2[nH]ccc2c1 [IX, 5-[3-(2-chloroethyl)ureido]indole] |  |  |  | IC50 [1, 12]: 70 µM
O=C(NCCCl)Nc1ccc2c(c1)Cc1ccccc1-2 [V, 2-[3-(2chloroethyl)ureido]fluorene] |  |  |  | IC50 [5, 13]: 5 µM; IC50 [1, 12]: 4 µM; IC50 [6, 14]: 4 µM
O=C(NCCCl)Nc1ccc2c(c1)CCC2 [VI, 5-[3-(2-chloroethyl)ureido]indane] |  |  |  | IC50 [5, 13]: 5 µM; IC50 [1, 12]: 7 µM; IC50 [6, 14]: 7 µM
O=C(NCCCl)Nc1ccc2cn[nH]c2c1 [VII, 6-[3-(2-chloroethyl)ureido]indazole] |  |  |  | IC50 [5, 13]: 31 µM; IC50 [1, 12]: 29 µM; IC50 [6, 14]: 76 µM
